Experimental findings from US20240383886A1, “Protein Tyrosine Phosphatase Degraders and Methods of Use Thereof” (CALICO LIFE SCIENCES LLC, priority 2019, published 2024) are described below.

By DC50 is commonly meant the concentration giving 50% degradation. A low value points to a more potent degrader.

Where only a bound is given, the exact number is not on record here.

Experiment [1] has as its target T1, PTPN2 (Homo sapiens, UniProt P17706).
T1 construct: expressed in transfected cells; host or cells: 293T (293T.109 HiBiT-PTPN2 line; parental 293T WT from ATCC)
T1 sequence (P17706 1-415): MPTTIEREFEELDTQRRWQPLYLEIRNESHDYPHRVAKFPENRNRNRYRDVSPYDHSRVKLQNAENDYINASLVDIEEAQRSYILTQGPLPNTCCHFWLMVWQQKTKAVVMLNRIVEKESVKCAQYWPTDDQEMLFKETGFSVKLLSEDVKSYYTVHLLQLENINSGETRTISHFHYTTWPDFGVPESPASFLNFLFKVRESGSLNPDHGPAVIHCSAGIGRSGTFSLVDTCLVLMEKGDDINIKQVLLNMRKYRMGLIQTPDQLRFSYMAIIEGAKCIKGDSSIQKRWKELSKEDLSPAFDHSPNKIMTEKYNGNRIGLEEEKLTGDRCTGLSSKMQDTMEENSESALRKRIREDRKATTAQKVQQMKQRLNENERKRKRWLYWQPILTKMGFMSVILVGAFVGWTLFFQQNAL
As to the kind of experiment: HiBiT-Degradation 293T.109 PTPN2 (Nano-Glo HiBiT Lytic Assay). The class given is cell-based. The note with it: 293T.109 (HiBiT-PTPN2) cells, 24.0 hours. An outline of the steps:
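293T cells ectopically expressing N-terminally HiBiT-tagged PTPN2 were seeded at 5000 cells/well. They were treated with an 11-point half-log titration from 10 μM, in duplicate, for 24 hours at 37° C., 5% CO2. Remaining tagged PTPN2 was quantified by lytic HiBiT luminescence against untreated and no-reagent controls.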
(In general: HiBiT is a short tag that completes a luciferase, so light tracks the accessible tagged protein.)

Experiment [2] deals with PTPN2. As to the kind of experiment: HiBiT-Degradation B16F10.4 PTPN2. The class given is cell-based. The note with it: B16F10.4 cells, 24.0 hours.

As to `Cn1c(=O)n(C2CCC(=O)NC2=O)c2ccc(C3CCN(CCC(=O)N4CC=C(c5ccc6cc(O)c(N7CC(=O)NS7(=O)=O)c(F)c6c5)C4)CC3)cc21` (centres unmarked) [Example 89, 3-[5-[1-[3-[3-[8-fluoro-6-hydroxy-7-(1,1,4-trioxo-1,2,5-thiadiazolidin-2-yl)-2-naphthyl]-2,5-dihydropyrrol-1-yl]-3-oxo-propyl]-4-piperidyl]-3-methyl-2-oxo-benzimidazol-1-yl]piperidine-2,6-dione], the half-maximal degradation concentration (DC50) at PTPN2 [1] and in the experiment with PTPN2 [2] was 0.05 to 0.2 µM in each case.

`Cn1c(=O)n(C2CCC(=O)NC2=O)c2ccc(C3CCN(CC(=O)N4CCC(c5ccc6cc(O)c(N7CC(=O)NS7(=O)=O)c(F)c6c5)C4)CC3)cc21` (centres unmarked) [Example 90, 3-[5-[1-[2-[3-[8-fluoro-6-hydroxy-7-(1,1,4-trioxo-1,2,5-thiadiazolidin-2-yl)-2-naphthyl]pyrrolidin-1-yl]-2-oxo-ethyl]-4-piperidyl]-3-methyl-2-oxo-benzimidazol-1-yl]piperidine-2,6-dione]: the DC50 on PTPN2 [1] fell in the range of 0.05 to 0.2 µM; in the experiment with PTPN2 [2], 0.2 to 1 µM.

For the molecule `Cn1c(=O)n(C2CCC(=O)NC2=O)c2ccc(C3CCN(CCCn4cc(-c5ccc6cc(O)c(N7CC(=O)NS7(=O)=O)c(F)c6c5)cn4)CC3)cc21` (centres unmarked) [Example 91, 3-[5-[1-[3-[4-[8-fluoro-6-hydroxy-7-(1,1,4-trioxo-1,2,5-thiadiazolidin-2-yl)-2-naphthyl]pyrazol-1-yl]propyl]-4-piperidyl]-3-methyl-2-oxo-benzimidazol-1-yl]piperidine-2,6-dione], the figures for the DC50 at PTPN2 [1] and in the experiment with PTPN2 [2] were 0.01 to 0.05 µM and 0.05 to 0.2 µM, respectively.

Take `Cn1c(=O)n([C@@H]2CCC(=O)NC2=O)c2ccc(C3CCN(CC(=O)NCCOc4ccc5cc(O)c(N6CC(=O)NS6(=O)=O)c(F)c5c4)CC3)cc21` [Example 92, 2-[4-[1-[(3R)-2,6-dioxo-3-piperidyl]-3-methyl-2-oxo-benzimidazol-5-yl]-1-piperidyl]-N-[2-[[8-fluoro-6-hydroxy-7-(1,1,4-trioxo-1,2,5-thiadiazolidin-2-yl)-2-naphthyl]oxy]ethyl]acetamide]: the results for the 50% degradation concentration (DC50) on PTPN2 [1] and with PTPN2 [2] were 0.05 to 0.2 µM and 0.2 to 1 µM, respectively.

As for `Cn1c(=O)n([C@H]2CCC(=O)NC2=O)c2ccc(C3CCN(CC(=O)NCCOc4ccc5cc(O)c(N6CC(=O)NS6(=O)=O)c(F)c5c4)CC3)cc21` [Example 93, 2-[4-[1-[(3S)-2,6-dioxo-3-piperidyl]-3-methyl-2-oxo-benzimidazol-5-yl]-1-piperidyl]-N-[2-[[8-fluoro-6-hydroxy-7-(1,1,4-trioxo-1,2,5-thiadiazolidin-2-yl)-2-naphthyl]oxy]ethyl]acetamide], the values for the DC50 at PTPN2 [1] and with PTPN2 [2] were 0.01 to 0.05 µM and 0.05 to 0.2 µM, respectively.

As for `CN(c1ccc(C2CCN(CC(=O)NCCOc3ccc4cc(O)c(N5CC(=O)NS5(=O)=O)c(F)c4c3)CC2)cc1)C1CCC(=O)NC1=O` (centres unmarked) [Example 94, 2-[4-[4-[(2,6-dioxo-3-piperidyl)-methyl-amino]phenyl]-1-piperidyl]-N-[2-[[8-fluoro-6-hydroxy-7-(1,1,4-trioxo-1,2,5-thiadiazolidin-2-yl)-2-naphthyl]oxy]ethyl]acetamide], the DC50 at PTPN2 [1] and in the experiment on PTPN2 [2] was 0.2 to 1 µM in each case.

For the molecule `Cn1c(=O)n(C2CCC(=O)NC2=O)c2ccc(C3CCN(CCCCCOc4ccc5cc(O)c(N6CC(=O)NS6(=O)=O)c(F)c5c4)CC3)cc21` (centres unmarked) [Example 95, 3-[5-[1-[5-[[8-fluoro-6-hydroxy-7-(1,1,4-trioxo-1,2,5-thiadiazolidin-2-yl)-2-naphthyl]oxy]pentyl]-4-piperidyl]-3-methyl-2-oxo-benzimidazol-1-yl]piperidine-2,6-dione], the DC50 on PTPN2 [1] was in the range of 0.01 to 0.05 µM; in the experiment with PTPN2 [2] it was 0.05 to 0.2 µM.

Turning to `O=C(CN1CCC(c2ccc(NC3CCC(=O)NC3=O)c(Oc3ccccc3)c2)CC1)NCCOc1ccc2cc(O)c(N3CC(=O)NS3(=O)=O)c(F)c2c1` (centres unmarked) [Example 96, 2-[4-[4-[(2,6-dioxo-3-piperidyl)amino]-3-phenoxy-phenyl]-1-piperidyl]-N-[2-[[8-fluoro-6-hydroxy-7-(1,1,4-trioxo-1,2,5-thiadiazolidin-2-yl)-2-naphthyl]oxy]ethyl]acetamide], the DC50 on PTPN2 [1] and with PTPN2 [2] was 0.05 to 0.2 µM each time.

In the case of `CN(CCOc1ccc2cc(O)c(N3CC(=O)NS3(=O)=O)c(F)c2c1)C(=O)CN1CCC(c2ccc3c(c2)n(C)c(=O)n3C2CCC(=O)NC2=O)CC1` (centres unmarked) [Example 97, 2-[4-[1-(2,6-dioxo-3-piperidyl)-3-methyl-2-oxo-benzimidazol-5-yl]-1-piperidyl]-N-[2-[[8-fluoro-6-hydroxy-7-(1,1,4-trioxo-1,2,5-thiadiazolidin-2-yl)-2-naphthyl]oxy]ethyl]-N-methyl-acetamide], the figures for the DC50 on PTPN2 [1] and with PTPN2 [2] were 0.05 to 0.2 µM and 0.2 to 1 µM, respectively.

As to `Cn1c(=O)n(C2CCC(=O)NC2=O)c2ccc(C3CCN(CCCCCCOc4ccc5cc(O)c(N6CC(=O)NS6(=O)=O)c(F)c5c4)CC3)cc21` (centres unmarked) [Example 98, 3-[5-[1-[6-[[8-fluoro-6-hydroxy-7-(1,1,4-trioxo-1,2,5-thiadiazolidin-2-yl)-2-naphthyl]oxy]hexyl]-4-piperidyl]-3-methyl-2-oxo-benzimidazol-1-yl]piperidine-2,6-dione], the 50% degradation concentration (DC50) at PTPN2 [1] fell in the range of 0.01 to 0.05 µM; in the experiment on PTPN2 [2] it was 0.05 to 0.2 µM.

With `Cn1c(=O)n(C2CCC(=O)NC2=O)c2ccc(N3CCC(CNC(=O)c4ccc5c(F)c(N6CC(=O)NS6(=O)=O)c(O)cc5c4)CC3)cc21` (centres unmarked) [Example 99, N-[[1-[1-(2,6-dioxo-3-piperidyl)-3-methyl-2-oxo-benzimidazol-5-yl]-4-piperidyl]methyl]-5-fluoro-7-hydroxy-6-(1,1,4-trioxo-1,2,5-thiadiazolidin-2-yl)naphthalene-2-carboxamide], the DC50 at PTPN2 [1] and with PTPN2 [2] was 0.05 to 0.2 µM throughout.

For `Cn1c(=O)n(C2CCC(=O)NC2=O)c2ccc(C3CCN(CC(=O)NCCOc4ccc5cc(O)c(N6CC(=O)NS6(=O)=O)c(Cl)c5c4)CC3)cc21` (centres unmarked) [Example 100, N-[2-[[8-chloro-6-hydroxy-7-(1,1,4-trioxo-1,2,5-thiadiazolidin-2-yl)-2-naphthyl]oxy]ethyl]-2-[4-[1-(2,6-dioxo-3-piperidyl)-3-methyl-2-oxo-benzimidazol-5-yl]-1-piperidyl]acetamide], the 50% degradation concentration (DC50) on PTPN2 [1] and in the experiment with PTPN2 [2] was 0.2 to 1 µM in each case.

Take `O=C1CCC(Nc2ccc(C3CCN(CC(=O)Nc4ccc5c(F)c(N6CC(=O)NS6(=O)=O)c(O)cc5c4)CC3)cc2Oc2ccccc2)C(=O)N1` (centres unmarked) [Example 101, 2-[4-[4-[(2,6-dioxo-3-piperidyl)amino]-3-phenoxy-phenyl]-1-piperidyl]-N-[5-fluoro-7-hydroxy-6-(1,1,4-trioxo-1,2,5-thiadiazolidin-2-yl)-2-naphthyl]acetamide]: the 50% degradation concentration (DC50) was 0.2 to 1 µM on PTPN2 [1] and at least 1 µM in the experiment on PTPN2 [2].

`Cn1c(=O)n(C2CCC(=O)NC2=O)c2ccc(C3=CCC(CNC(=O)c4ccc5c(F)c(N6CC(=O)NS6(=O)=O)c(O)cc5c4)CC3)cc21` (centres unmarked) [Example 102]: the DC50 at PTPN2 [1] and in the experiment with PTPN2 [2] was 0.2 to 1 µM throughout.

In the case of `Cn1c(=O)n(C2CCC(=O)NC2=O)c2ccc(N3CCC(CC(=O)N4CC=C(c5ccc6cc(O)c(N7CC(=O)NS7(=O)=O)c(F)c6c5)C4)CC3)cc21` (centres unmarked) [Example 103, 3-[5-[4-[2-[3-[8-fluoro-6-hydroxy-7-(1,1,4-trioxo-1,2,5-thiadiazolidin-2-yl)-2-naphthyl]-2,5-dihydropyrrol-1-yl]-2-oxo-ethyl]-1-piperidyl]-3-methyl-2-oxo-benzimidazol-1-yl]piperidine-2,6-dione], the DC50 at PTPN2 [1] was in the range of 0.2 to 1 µM; with PTPN2 [2], 0.05 to 0.2 µM.

For `Cn1c(=O)n(C2CCC(=O)NC2=O)c2ccc(Nc3ccc(C(=O)Nc4ccc5c(F)c(N6CC(=O)NS6(=O)=O)c(O)cc5c4)cc3)cc21` (centres unmarked) [Example 104, 4-[[1-(2,6-dioxo-3-piperidyl)-3-methyl-2-oxo-benzimidazol-5-yl]amino]-N-[5-fluoro-7-hydroxy-6-(1,1,4-trioxo-1,2,5-thiadiazolidin-2-yl)-2-naphthyl]benzamide], the half-maximal degradation concentration (DC50) at PTPN2 [1] and in the experiment with PTPN2 [2] was 0.05 to 0.2 µM in each case.

For the molecule `Cn1c(=O)n(C2CCC(=O)NC2=O)c2ccc(Nc3ccc(CC(=O)Nc4ccc5c(F)c(N6CC(=O)NS6(=O)=O)c(O)cc5c4)cc3)cc21` (centres unmarked) [Example 105, 2-[4-[[1-(2,6-dioxo-3-piperidyl)-3-methyl-2-oxo-benzimidazol-5-yl]amino]phenyl]-N-[5-fluoro-7-hydroxy-6-(1,1,4-trioxo-1,2,5-thiadiazolidin-2-yl)-2-naphthyl]acetamide], the DC50 at PTPN2 [1] and in the experiment with PTPN2 [2] was 0.01 to 0.05 µM each time.

Regarding `Cn1c(=O)n(C2CCC(=O)NC2=O)c2ccc(-c3ccc(CNC(=O)c4ccc5c(F)c(N6CC(=O)NS6(=O)=O)c(O)cc5c4)cc3)cc21` (centres unmarked) [Example 106], the DC50 on PTPN2 [1] and in the experiment with PTPN2 [2] was 0.2 to 1 µM in each case.

On to `Cn1c(=O)n(C2CCC(=O)NC2=O)c2ccc(C3CCN(CCS(=O)(=O)N4CC=C(c5ccc6cc(O)c(N7CC(=O)NS7(=O)=O)c(F)c6c5)C4)CC3)cc21` (centres unmarked) [Example 107, 3-(5-(1-(2-((3-(7-(1,1-dioxido-4-oxo-1,2,5-thiadiazolidin-2-yl)-8-fluoro-6-hydroxynaphthalen-2-yl)-2,5-dihydro-1H-pyrrol-1-yl)sulfonyl)ethyl)piperidin-4-yl)-3-methyl-2-oxo-2,3-dihydro-1H-benzo[d]imidazol-1-yl)piperidine-2,6-dione], for which the 50% degradation concentration (DC50) at PTPN2 [1] and in the experiment on PTPN2 [2] was 0.05 to 0.2 µM throughout.
